Where a name gives a salt, the structure may show the parent alone. Marks after values point to notes of the source that are not given here.
How the values were obtained:
APP Tg mouse [1] = assay: Passive avoidance test, APP transgenic mouse; assay type: in vivo; conditions: dose 200 μg/kg body weight, five times a week for 12 weeks
APP Tg mouse [2] = assay: Water maze test, APP transgenic mouse; assay type: in vivo; conditions: dose 200 μg/kg body weight, time required for arriving the platform
[3] = system: hamsters with cerebellar ataxia; assay: Rotarod test in hamsters with cerebellar ataxia; assay type: in vivo, hamster; conditions: for Delayed days until the onset of cerebellar ataxia in hamster: 25 μg/kg body weight; for time (sec) endured until falling from rotarod apparatus: cerebellar ataxia hamsters, 25 μg/kg body weight i.p. once a day
Source text: (§1) Since NK-4 was confirmed to have a neurodegenerative inhibitory action in Experiment 1, hamsters with cerebellar ataxia (cerebellar ataxia is called “cerebellar A” and hamsters with cerebellar ataxia are called “hamsters with cerebellar A”, hereinafter) as a suitable model for human neurodegenerative diseases (e.g., spinal cerebellar degeneration) were subjected to examine the influence of NK-4 administration on their behaviors and brain tissues. Twenty-five hamsters with natural mutation (Nna1 inhibition), which are known to lose Purkinje's cells after three-weeks of age and then induce a spontaneous onset of kinetic motor ataxia after seven-weeks of age (see Akita K. et al., “J. Neurogenetics”, Vol. 21, pp. 19-29, 2007), had been fed at Hayashibara Biochemical Laboratories., Inc., Okayama, Japan, were randomly allocated to the test groups 1 to 5, five heads in each group, as shown in Table 2. Prior to the onset of cerebellar A (at three-weeks of age), PBS was started to administer to the hamsters in the test group 1 at a dose of 10 ml/kg/day. Prior to the onset of cerebellar A (at three-weeks of age), NK-4 was started to be administered to the hamsters in the test groups 2 to 4 at a daily dose of 20 μg/kg, 100 μg/kg or 500 μg/kg. “IGF-1, human, a product name of insulin-like growth factor, commercialized by Assaypro LLC, MO, USA. These administered ingredients were intraperitoneally administered daily to hamsters once a day up to 10-weeks of age. The degree of symptom of cerebellar A and the improvement effect on the symptom by NK-4 were evaluated with an index of improvement in motor coordination of hamsters by conducting once a week the later described rotarod test and the slant tolerance test. At the age of 10-weeks, the hamsters were subjected to counting the falling down frequency and extracted their brains, which were then histologically evaluated. In parallel, the concentration of glutamic acid in the bloods and cerebrospinal fluids (CSF) of the hamsters was assayed. As a test group 6, five normal hamsters, with the same age as the hamsters with cerebellar A used in the test groups 1 to 5, were provided and tested similarly as the hamsters with cerebellar A in such a manner of intraperitoneally administering PBS to them at a dose of 10 ml/kg/day once a day up to 10-weeks of age.
As an index for coordinated movement, it was used a duration time of hamster's movement to staying on a rotarod by locomotion in synchronization with the turn of the rotarod; placing a hamster on an apparatus with a rotarod (having a diameter of 60 mm, prepared by Hayashibara Biochemical Laboratories, Inc., Okayama, Japan), turning at a constant rate of six rpm, and measuring the time until the hamster falls down from the rotarod (see Fernandez et al., “Proc. Natl. Acad. Sci. USA”, Vol. 95, pp. 1253-1258, 1998). The test was repeated six times for each hamster, where five-times of tests starting from the initiation of the test were made as a preliminary examination, and the time until each hamster fell down from the rotarod (called “falling time”, hereinafter) was measured, followed by averaging the falling times for each group consisting of five heads. The falling time was measured until 180 seconds. Based on the results, the relationship between the age and the falling time for each hamster with cerebellar A (test group 1) administered with PBS was graphed. […]
Similarly as in Experiment 2, 130 hamsters with cerebellar ataxia, born within the same week and 3-weeks of age, were randomly divided into 13 groups, consisting of 10 hamsters, respectively. […]

[4] = system: hamsters with cerebellar ataxia; assay: Histological evaluation of cerebellum of hamsters with cerebellar ataxia; assay type: in vivo, hamster; conditions: 10-weeks of age, 25 μg/kg body weight
Source text: as §1
Hamsters, 10-weeks of age, after completion of test on coordinated movement such as a confirmation of falling down frequency were intraperitoneally received 50 mg/kg pentobarbital, bled from their postcavas to let them die, and extracted their cerebra and cerebella, followed by fixing them with a 10% by volume of formalin solution. The resulting cerebra and cerebella were photographed with a digital camera apart from a prescribed high position and measured diameters in sagittal and horizontal directions for each photograph. The volumes of cerebra and cerebella were respectively determined by calculating with the formula, (length of sagittal direction)^2×(length of horizontal direction)×0.5; and the data from five heads in each group were averaged. The hamsters with cerebella A used in this experiment are known to reduce cell density of Purkinje's cells and granular cells. Cerebellar slices, which had been cut out in sagittal direction, were stained with hematoxylin-eosin stain, and microscopically observed to count the total number of Purkinje's cells within a Purkinje's cell layer ([…] I to X) and the number of granular cells per unit area, and to confirm subjects in which demyelination was observed within their cerebellar white matters. The results are in Table 5 in parallel.

[5] = system: hamsters with cerebellar ataxia; assay: Concentration of glutamic acid in cerebrospinal fluid (CSF); assay type: in vivo, hamster; conditions: 10-weeks of age, 25 μg/kg body weight
Source text: as §1
The content of glutamic acid, which is used for synthesizing gamma-amino butyric acid (GABA) as a main excitatory neurotransmitter and inhibitory neurotransmitter that regulate higher-order functions such as memory/learning in mammalian central nervous system, was assayed. In harvesting the brains from the above hamsters, they were blooded from their postcavas, followed by collecting CSF for use in the later described assay for glutamic acid concentration. […]

[6] = system: hamsters with cerebellar ataxia; assay: Slant tolerance test in hamsters with cerebellar ataxia; assay type: in vivo, hamster; conditions: cerebellar ataxia hamsters, 25 μg/kg body weight i.p. once a day
Source text: as §1
Hamsters were placed on a slope-angle-variable-board while keeping their heads upward, followed by determining the angle for allowing the hamsters to keep staying thereupon for five seconds for use as an endurable-slant-slope-angle test (see Rivlin et al., “J. Neurosurg.”, Vol. 47, pp. 577-581, […]). The initial slope angle was set to 25 degrees and increased by 5 degrees step by step. When a tested hamster in a static condition fell down within five seconds, the slope angle was decreased by one degree step by step, followed by judging the angle that allows the hamster to keep static staying for five seconds, measuring the tolerable slant-slope-angle, and averaging the data for five heads in each group.
(§2) Similarly as in Experiment 2, 130 hamsters with cerebellar ataxia, born within the same week and 3-weeks of age, were randomly divided into 13 groups, consisting of 10 hamsters, respectively. […] The hamsters (10 heads) in the remaining one group were intraperitoneally administered from their age of 3- to 10-weeks with a sterilized 10% maltose solution (pyrogen-free) in an amount of 0.5 ml/hamster (control) once a day for 56 days At the next day after the end of the administration, body weight of each hamster was weighed, followed by performing rotarod test, slope endurance test, and counting of falling down frequency. The types of compounds applied to each group and the results are in Table 25.

[7] = Body weight of hamsters with cerebellar ataxia during administration; assay type: in vivo, hamster; conditions: compared between groups administered with PBS, NK-4 and IGF-1
[8] = system: hamsters with cerebellar ataxia; assay: Falling down frequency of hamsters with cerebellar ataxia; assay type: in vivo, hamster; conditions: cerebellar ataxia hamsters, 10-weeks of age; 25 μg/kg body weight i.p. once a day
Source text: as §1
Hamsters, 10-weeks of age, were respectively housed in a breeding cage. Their falling down frequencies within one minute were counted under a macroscopic observation and the data from five heads in each group were averaged. For reference, the hamsters with cerebellar A used in this experiment are known to increase their falling down frequencies after nine weeks of age.
as §2

Compound: COc1cc2c(cc1OC)C(=O)C(CC1CCN(Cc3ccccc3)CC1)C2 (centres unmarked) [Donepezil HCl]
- Passive avoidance reaction (APP Tg mouse [1]): 200 ± 61 s
- Water maze test 1st day (APP Tg mouse [2]; 1st day): 120 ± 0
- Water maze test 2nd day (APP Tg mouse [2]; 2nd day): 77 ± 19
- Water maze test 3rd day (APP Tg mouse [2]; 3rd day): 53 ± 13
- Water maze test 4th day (APP Tg mouse [2]; 4th day): 62 ± 16

Compound: IGF-1: insulin-like growth factor, human, commercialized by Assaypro LLC
- Delayed days until the onset of cerebellar ataxia in hamster ([3]; 5-Weeks): 1 days
- Delayed days until the onset of cerebellar ataxia in hamster ([3]; 6-Weeks): 8 days
- Delayed days until the onset of cerebellar ataxia in hamster ([3]; 7-Weeks): 1 days
- Delayed days until the onset of cerebellar ataxia in hamster ([3]; 8-Weeks): 1 days
- Delayed days until the onset of cerebellar ataxia in hamster ([3]; 9-Weeks): 0 days
- Delayed days until the onset of cerebellar ataxia in hamster ([3]; 10-Weeks): 0 days
- time (sec) endured until falling from rotarod apparatus ([3]; 4-Weeks): 126 ± 11 s
- time (sec) endured until falling from rotarod apparatus ([3]; 5-Weeks): 63 ± 13 s
- time (sec) endured until falling from rotarod apparatus ([3]; 6-Weeks): 43 ± 11 s
- time (sec) endured until falling from rotarod apparatus ([3]; 7-Weeks): 21 ± 5 s
- time (sec) endured until falling from rotarod apparatus ([3]; 8-Weeks): 9 ± 2 s
- time (sec) endured until falling from rotarod apparatus ([3]; 9-Weeks): 6 ± 1 s
- time (sec) endured until falling from rotarod apparatus ([3]; 10-Weeks): 6 ± 1 s
- Cerebellar volume (mm^3) ([4]; cerebellar ataxia hamsters): 77.6 ± 6.1* mm^3
- Number of Purkinje cells (cells) ([4]; cerebellar ataxia hamsters): 71 ± 16 cells
- Number of granular cells (cells/20000 μm^2) ([4]; cerebellar ataxia hamsters): 371 ± 11 cells/20000 μm^2
- Number of subject (head) with apparent demyelination in cerebellar white matter ([4]; five heads per group): 3 head
- Concentration of glutamic acid in cerebrospinal fluid [5]: 7.9 ± 2.0 µM
- endurable-slant-slope-angle (degree) ([6]; 4-Weeks): 44.4 ± 0.2 degree
- endurable-slant-slope-angle (degree) ([6]; 5-Weeks): 41.8 ± 0.6 degree
- endurable-slant-slope-angle (degree) ([6]; 6-Weeks): 40.2 ± 0.7 degree
- endurable-slant-slope-angle (degree) ([6]; 7-Weeks): 41.6 ± 0.8 degree
- endurable-slant-slope-angle (degree) ([6]; 8-Weeks): 35.6 ± 0.2 degree
- endurable-slant-slope-angle (degree) ([6]; 9-Weeks): 35.2 ± 0.6 degree
- endurable-slant-slope-angle (degree) ([6]; 10-Weeks): 33.0 ± 0.9 degree
- body weight of hamsters with cerebellar A, weighed once every week up to 10-weeks of age [7]: no significant difference
- Falling down frequency (frequency/min) [8]: 11.4 ± 0.4 frequency/min
